Results as given in the kinase profiling compilation of Christmann-Franck et al. (2016).

Experiments:
Assay in all cases: KINOMEscan competition binding
DCLK3 (human) = DCLK3 (human) (UniProt Q9C098); details: compound 1.0 µM
NTRK3 (human) = NTRK3 (human) (UniProt Q16288); details: compound 1.0 µM
NEK6 (human) = NEK6 (human) (UniProt Q9HC98); details: compound 1.0 µM
CDK7 (human) = CDK7 (human) (UniProt P50613); details: compound 1.0 µM
FGR (human) = FGR (human) (UniProt P09769); details: compound 1.0 µM
EPHA5 (human) = EPHA5 (human) (UniProt P54756); details: compound 1.0 µM
MYO3A (human) = MYO3A (human) (UniProt Q8NEV4); details: compound 1.0 µM
TRPM6 (human) = TRPM6 (human) (UniProt Q9BX84); details: compound 1.0 µM
PIM2 (human) = PIM2 (human) (UniProt Q9P1W9); details: compound 1.0 µM
TBK1 (human) = TBK1 (human) (UniProt Q9UHD2); details: compound 1.0 µM
TAOK3 (human) = TAOK3 (human) (UniProt Q9H2K8); details: compound 1.0 µM
MKNK1 (human) = MKNK1 (human) (UniProt Q9BUB5); details: compound 1.0 µM
MYO3B (human) = MYO3B (human) (UniProt Q8WXR4); details: compound 1.0 µM
STK25 (human) = STK25 (human) (UniProt O00506); details: compound 1.0 µM
PRKG2 (human) = PRKG2 (human) (UniProt Q13237); details: compound 1.0 µM
TXK (human) = TXK (human) (UniProt P42681); details: compound 1.0 µM
CDC42BPA (human) = CDC42BPA (human) (UniProt Q5VT25); details: compound 1.0 µM
[1] = target: JAK1 JH1 catalytic (human) (UniProt P23458); details: compound 1.0 µM
PHKG2 (human) = PHKG2 (human) (UniProt P15735); details: compound 1.0 µM
RPS6KB1 (human) = RPS6KB1 (human) (UniProt P23443); details: compound 1.0 µM
MAP4K5 (human) = MAP4K5 (human) (UniProt Q9Y4K4); details: compound 1.0 µM
CDKL3 (human) = CDKL3 (human) (UniProt Q8IVW4); details: compound 1.0 µM
MET (human) = MET (human) (UniProt P08581); details: compound 1.0 µM
FLT4 (human) = FLT4 (human) (UniProt P35916); details: compound 1.0 µM
ERBB3 (human) = ERBB3 (human) (UniProt P21860); details: compound 1.0 µM
GRK1 (human) = GRK1 (human) (UniProt Q15835); details: compound 1.0 µM
DAPK2 (human) = DAPK2 (human) (UniProt Q9UIK4); details: compound 1.0 µM
GSK3B (human) = GSK3B (human) (UniProt P49841); details: compound 1.0 µM
ITK (human) = ITK (human) (UniProt Q08881); details: compound 1.0 µM
[2] = tested on: MET (human), P08581 [M1250T]; details: compound 1.0 µM
RIOK3 (human) = RIOK3 (human) (UniProt O14730); details: compound 1.0 µM
HIPK4 (human) = HIPK4 (human) (UniProt Q8NE63); details: compound 1.0 µM
KIT (human) = KIT (human) (UniProt P10721); details: compound 1.0 µM
PRKCD (human) = PRKCD (human) (UniProt Q05655); details: compound 1.0 µM
MAPK15 (human) = MAPK15 (human) (UniProt Q8TD08); details: compound 1.0 µM
RIOK2 (human) = RIOK2 (human) (UniProt Q9BVS4); details: for kinase still bound, per cent of control: compound 1.0 µM
ABL2 (human) = ABL2 (human) (UniProt P42684); details: compound 1.0 µM
[3] = tested on: EGFR (human), P00533 [G719S]; details: compound 1.0 µM
PHKG1 (human) = PHKG1 (human) (UniProt Q16816); details: compound 1.0 µM
STK32C (human) = STK32C (human) (UniProt Q86UX6); details: compound 1.0 µM
NEK11 (human) = NEK11 (human) (UniProt Q8NG66); details: compound 1.0 µM
FGFR4 (human) = FGFR4 (human) (UniProt P22455); details: compound 1.0 µM
[4] = tested on: EGFR (human), P00533 [L858R]; details: compound 1.0 µM

Sequence of RIOK2 (human) (Q9BVS4 whole entry, looked up): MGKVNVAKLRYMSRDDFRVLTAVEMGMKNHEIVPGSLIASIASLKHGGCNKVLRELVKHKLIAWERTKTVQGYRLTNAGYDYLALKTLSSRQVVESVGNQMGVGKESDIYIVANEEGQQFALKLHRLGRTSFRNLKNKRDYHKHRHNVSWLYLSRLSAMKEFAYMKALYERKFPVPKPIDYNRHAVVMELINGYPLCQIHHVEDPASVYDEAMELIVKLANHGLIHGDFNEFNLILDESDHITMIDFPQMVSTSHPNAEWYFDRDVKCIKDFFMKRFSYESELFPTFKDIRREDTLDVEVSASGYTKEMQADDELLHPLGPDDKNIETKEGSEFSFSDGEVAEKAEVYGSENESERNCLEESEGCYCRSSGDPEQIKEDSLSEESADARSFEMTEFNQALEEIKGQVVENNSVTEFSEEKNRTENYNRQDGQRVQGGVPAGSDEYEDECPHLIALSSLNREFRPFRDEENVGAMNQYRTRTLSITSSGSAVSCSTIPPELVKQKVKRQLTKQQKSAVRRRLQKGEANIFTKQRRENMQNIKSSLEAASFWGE
Sequence of PIM2 (human) (Q9P1W9 whole entry, looked up): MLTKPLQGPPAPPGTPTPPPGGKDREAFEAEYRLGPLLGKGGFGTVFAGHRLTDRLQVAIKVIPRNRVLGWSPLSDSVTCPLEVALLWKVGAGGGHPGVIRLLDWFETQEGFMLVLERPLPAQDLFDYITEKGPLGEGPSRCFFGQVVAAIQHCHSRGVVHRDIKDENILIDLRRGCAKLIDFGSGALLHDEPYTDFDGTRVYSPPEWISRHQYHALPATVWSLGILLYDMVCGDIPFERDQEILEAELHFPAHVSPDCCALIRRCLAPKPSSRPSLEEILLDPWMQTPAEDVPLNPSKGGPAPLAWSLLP
Sequence of FGR (human) (P09769 whole entry, looked up): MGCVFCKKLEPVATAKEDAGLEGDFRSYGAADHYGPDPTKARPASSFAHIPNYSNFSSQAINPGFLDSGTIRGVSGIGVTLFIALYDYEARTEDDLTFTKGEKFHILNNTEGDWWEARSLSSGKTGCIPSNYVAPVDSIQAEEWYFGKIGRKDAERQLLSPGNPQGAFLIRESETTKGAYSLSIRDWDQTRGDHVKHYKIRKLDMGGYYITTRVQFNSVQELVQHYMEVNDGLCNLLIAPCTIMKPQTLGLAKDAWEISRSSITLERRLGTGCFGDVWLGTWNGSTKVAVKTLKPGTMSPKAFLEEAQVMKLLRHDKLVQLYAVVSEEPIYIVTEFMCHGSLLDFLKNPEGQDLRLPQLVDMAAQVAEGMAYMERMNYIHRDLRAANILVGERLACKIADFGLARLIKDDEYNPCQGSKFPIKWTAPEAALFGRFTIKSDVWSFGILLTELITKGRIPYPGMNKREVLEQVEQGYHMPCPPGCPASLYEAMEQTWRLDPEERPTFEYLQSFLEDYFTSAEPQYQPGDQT
Sequence of CDC42BPA (human) (Q5VT25 whole entry, looked up): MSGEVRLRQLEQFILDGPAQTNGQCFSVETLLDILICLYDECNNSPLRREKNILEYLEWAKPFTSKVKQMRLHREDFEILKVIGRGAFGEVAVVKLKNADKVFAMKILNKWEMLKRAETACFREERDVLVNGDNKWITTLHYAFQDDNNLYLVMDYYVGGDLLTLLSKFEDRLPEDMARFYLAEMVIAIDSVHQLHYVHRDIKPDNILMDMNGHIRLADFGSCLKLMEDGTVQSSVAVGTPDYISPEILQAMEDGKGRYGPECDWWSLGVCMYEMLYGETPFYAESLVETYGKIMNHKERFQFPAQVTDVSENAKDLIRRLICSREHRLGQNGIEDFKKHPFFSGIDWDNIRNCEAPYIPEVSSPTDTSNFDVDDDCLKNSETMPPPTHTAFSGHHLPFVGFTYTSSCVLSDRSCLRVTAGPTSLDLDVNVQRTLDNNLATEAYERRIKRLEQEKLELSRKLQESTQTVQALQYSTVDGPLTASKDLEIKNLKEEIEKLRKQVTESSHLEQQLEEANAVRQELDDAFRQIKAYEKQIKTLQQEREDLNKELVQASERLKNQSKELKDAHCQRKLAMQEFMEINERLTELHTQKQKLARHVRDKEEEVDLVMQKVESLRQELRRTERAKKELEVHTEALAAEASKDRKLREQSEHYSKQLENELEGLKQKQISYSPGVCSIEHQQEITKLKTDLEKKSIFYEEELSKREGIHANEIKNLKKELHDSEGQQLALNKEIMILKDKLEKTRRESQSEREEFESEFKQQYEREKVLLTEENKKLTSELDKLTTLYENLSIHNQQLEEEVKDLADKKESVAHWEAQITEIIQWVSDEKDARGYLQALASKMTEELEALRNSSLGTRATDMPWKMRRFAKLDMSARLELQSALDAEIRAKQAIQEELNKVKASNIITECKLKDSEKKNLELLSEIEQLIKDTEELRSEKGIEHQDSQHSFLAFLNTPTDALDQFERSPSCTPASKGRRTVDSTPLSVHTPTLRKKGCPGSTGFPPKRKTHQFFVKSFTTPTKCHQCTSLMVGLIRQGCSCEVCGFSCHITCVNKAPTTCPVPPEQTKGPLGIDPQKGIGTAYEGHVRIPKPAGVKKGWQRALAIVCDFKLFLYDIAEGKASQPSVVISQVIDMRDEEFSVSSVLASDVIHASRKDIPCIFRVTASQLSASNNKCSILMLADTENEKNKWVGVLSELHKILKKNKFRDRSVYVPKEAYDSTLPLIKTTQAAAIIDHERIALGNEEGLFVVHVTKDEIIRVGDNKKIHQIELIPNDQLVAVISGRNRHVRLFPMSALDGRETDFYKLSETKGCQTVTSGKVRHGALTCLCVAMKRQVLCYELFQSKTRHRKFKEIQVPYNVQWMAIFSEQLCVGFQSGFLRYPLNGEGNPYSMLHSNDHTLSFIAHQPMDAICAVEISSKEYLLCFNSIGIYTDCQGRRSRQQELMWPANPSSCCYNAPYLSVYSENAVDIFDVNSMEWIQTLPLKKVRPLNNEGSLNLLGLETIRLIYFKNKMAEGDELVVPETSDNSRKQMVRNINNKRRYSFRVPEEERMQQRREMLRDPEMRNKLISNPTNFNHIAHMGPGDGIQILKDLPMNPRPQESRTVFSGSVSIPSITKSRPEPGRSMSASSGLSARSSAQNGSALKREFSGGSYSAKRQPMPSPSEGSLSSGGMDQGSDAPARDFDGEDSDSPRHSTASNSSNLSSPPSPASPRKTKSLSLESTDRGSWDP
Sequence of KIT (human) (P10721 whole entry, looked up): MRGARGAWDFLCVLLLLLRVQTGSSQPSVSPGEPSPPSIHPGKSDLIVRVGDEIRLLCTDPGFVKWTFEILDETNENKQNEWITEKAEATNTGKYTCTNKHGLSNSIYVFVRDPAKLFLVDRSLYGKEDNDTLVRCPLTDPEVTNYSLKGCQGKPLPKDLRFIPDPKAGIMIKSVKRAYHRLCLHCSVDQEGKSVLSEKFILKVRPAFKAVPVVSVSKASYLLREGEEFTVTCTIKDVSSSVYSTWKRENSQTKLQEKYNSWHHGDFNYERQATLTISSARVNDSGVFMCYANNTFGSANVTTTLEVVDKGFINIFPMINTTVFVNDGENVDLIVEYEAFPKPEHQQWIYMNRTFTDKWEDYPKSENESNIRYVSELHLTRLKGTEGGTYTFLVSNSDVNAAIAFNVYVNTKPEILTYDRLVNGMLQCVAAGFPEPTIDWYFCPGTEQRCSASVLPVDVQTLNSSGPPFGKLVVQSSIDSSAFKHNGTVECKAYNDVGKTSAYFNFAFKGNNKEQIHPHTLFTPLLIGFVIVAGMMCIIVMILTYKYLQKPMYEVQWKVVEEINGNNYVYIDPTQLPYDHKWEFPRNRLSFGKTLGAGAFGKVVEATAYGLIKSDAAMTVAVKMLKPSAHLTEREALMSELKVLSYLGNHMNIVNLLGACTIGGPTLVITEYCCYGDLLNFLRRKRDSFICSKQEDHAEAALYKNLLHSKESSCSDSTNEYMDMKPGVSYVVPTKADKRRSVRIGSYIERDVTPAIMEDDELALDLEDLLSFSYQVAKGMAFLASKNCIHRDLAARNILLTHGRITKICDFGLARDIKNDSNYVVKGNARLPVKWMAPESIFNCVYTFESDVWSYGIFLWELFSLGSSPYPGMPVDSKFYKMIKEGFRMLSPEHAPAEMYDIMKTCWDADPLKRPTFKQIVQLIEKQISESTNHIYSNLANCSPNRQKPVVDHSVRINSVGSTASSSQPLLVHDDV
Sequence of TXK (human) (P42681 whole entry, looked up): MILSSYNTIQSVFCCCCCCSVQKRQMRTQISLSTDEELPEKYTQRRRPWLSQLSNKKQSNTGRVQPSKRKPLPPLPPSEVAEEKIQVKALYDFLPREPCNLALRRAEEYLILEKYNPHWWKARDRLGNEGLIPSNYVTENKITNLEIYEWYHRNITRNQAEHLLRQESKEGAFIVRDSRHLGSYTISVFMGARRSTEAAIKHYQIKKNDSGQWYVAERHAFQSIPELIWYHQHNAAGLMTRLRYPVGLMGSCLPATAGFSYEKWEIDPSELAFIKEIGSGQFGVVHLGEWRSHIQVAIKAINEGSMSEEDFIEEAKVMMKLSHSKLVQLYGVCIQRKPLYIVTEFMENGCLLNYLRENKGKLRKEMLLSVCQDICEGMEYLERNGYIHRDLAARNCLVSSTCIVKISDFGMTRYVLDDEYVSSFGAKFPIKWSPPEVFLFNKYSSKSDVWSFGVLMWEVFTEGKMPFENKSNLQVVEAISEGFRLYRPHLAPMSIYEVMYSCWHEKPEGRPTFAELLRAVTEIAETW
Sequence of CDK7 (human) (P50613 whole entry, looked up): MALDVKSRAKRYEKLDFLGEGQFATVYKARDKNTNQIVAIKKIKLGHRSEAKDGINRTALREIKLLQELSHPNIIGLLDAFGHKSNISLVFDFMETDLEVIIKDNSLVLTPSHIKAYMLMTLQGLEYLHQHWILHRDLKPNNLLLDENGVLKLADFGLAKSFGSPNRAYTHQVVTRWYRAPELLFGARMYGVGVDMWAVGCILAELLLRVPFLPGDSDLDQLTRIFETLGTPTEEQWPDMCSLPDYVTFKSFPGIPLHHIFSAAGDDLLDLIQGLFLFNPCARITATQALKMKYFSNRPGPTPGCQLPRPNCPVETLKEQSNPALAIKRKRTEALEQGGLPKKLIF

CN(C)C/C=C/C(=O)Nc1cccc(C(=O)Nc2ccc(Nc3nccc(-c4c(-c5ccccc5)nn5ccccc45)n3)cc2)c1
kinase still bound, per cent of control (DCLK3 (human)): 86% | kinase still bound, per cent of control (NTRK3 (human)): 84% | kinase still bound, per cent of control (NEK6 (human)): 100% | kinase still bound, per cent of control (CDK7 (human)): 83% | kinase still bound, per cent of control (FGR (human)): 10% | kinase still bound, per cent of control (EPHA5 (human)): 98% | kinase still bound, per cent of control (MYO3A (human)): 100% | kinase still bound, per cent of control (TRPM6 (human)): 100% | kinase still bound, per cent of control (PIM2 (human)): 100% | kinase still bound, per cent of control (TBK1 (human)): 100% | kinase still bound, per cent of control (TAOK3 (human)): 42% | kinase still bound, per cent of control (MKNK1 (human)): 96% | kinase still bound, per cent of control (MYO3B (human)): 97% | kinase still bound, per cent of control (STK25 (human)): 100% | kinase still bound, per cent of control (PRKG2 (human)): 83% | kinase still bound, per cent of control (TXK (human)): 24% | kinase still bound, per cent of control (CDC42BPA (human)): 13% | kinase still bound, per cent of control [1]: 89% | kinase still bound, per cent of control (PHKG2 (human)): 100% | kinase still bound, per cent of control (RPS6KB1 (human)): 83% | kinase still bound, per cent of control (MAP4K5 (human)): 27% | kinase still bound, per cent of control (CDKL3 (human)): 100% | kinase still bound, per cent of control (MET (human)): 55% | kinase still bound, per cent of control (FLT4 (human)): 7.8% | kinase still bound, per cent of control (ERBB3 (human)): 43% | kinase still bound, per cent of control (GRK1 (human)): 100% | kinase still bound, per cent of control (DAPK2 (human)): 97% | kinase still bound, per cent of control (GSK3B (human)): 49% | kinase still bound, per cent of control (ITK (human)): 100% | kinase still bound, per cent of control [2]: 70% | kinase still bound, per cent of control (RIOK3 (human)): 97% | kinase still bound, per cent of control (HIPK4 (human)): 70% | kinase still bound, per cent of control (KIT (human)): 0.15% | kinase still bound, per cent of control (PRKCD (human)): 100% | kinase still bound, per cent of control (MAPK15 (human)): 93% | kinase still bound, per cent of control (RIOK2 (human)): 27% | kinase still bound, per cent of control (ABL2 (human)): 21% | kinase still bound, per cent of control [3]: 1.8% | kinase still bound, per cent of control (PHKG1 (human)): 100% | kinase still bound, per cent of control (STK32C (human)): 99% | kinase still bound, per cent of control (NEK11 (human)): 100% | kinase still bound, per cent of control (FGFR4 (human)): 100% | kinase still bound, per cent of control [4]: 0.8%

Cc1cc(NC(=O)c2cccc(NC(=O)/C=C/CN(C)C)c2)ccc1Nc1nccc(-c2cccnc2)n1
kinase still bound, per cent of control (DCLK3 (human)): 100% | kinase still bound, per cent of control (NTRK3 (human)): 79% | kinase still bound, per cent of control (NEK6 (human)): 100% | kinase still bound, per cent of control (CDK7 (human)): 39% | kinase still bound, per cent of control (FGR (human)): 100% | kinase still bound, per cent of control (EPHA5 (human)): 100% | kinase still bound, per cent of control (MYO3A (human)): 81% | kinase still bound, per cent of control (TRPM6 (human)): 98% | kinase still bound, per cent of control (PIM2 (human)): 100% | kinase still bound, per cent of control (TBK1 (human)): 100% | kinase still bound, per cent of control (TAOK3 (human)): 66% | kinase still bound, per cent of control (MKNK1 (human)): 81% | kinase still bound, per cent of control (MYO3B (human)): 89% | kinase still bound, per cent of control (STK25 (human)): 92% | kinase still bound, per cent of control (PRKG2 (human)): 97% | kinase still bound, per cent of control (TXK (human)): 96% | kinase still bound, per cent of control (CDC42BPA (human)): 100% | kinase still bound, per cent of control [1]: 98% | kinase still bound, per cent of control (PHKG2 (human)): 89% | kinase still bound, per cent of control (RPS6KB1 (human)): 100% | kinase still bound, per cent of control (MAP4K5 (human)): 100% | kinase still bound, per cent of control (CDKL3 (human)): 100% | kinase still bound, per cent of control (MET (human)): 100% | kinase still bound, per cent of control (FLT4 (human)): 100% | kinase still bound, per cent of control (ERBB3 (human)): 93% | kinase still bound, per cent of control (GRK1 (human)): 100% | kinase still bound, per cent of control (DAPK2 (human)): 77% | kinase still bound, per cent of control (GSK3B (human)): 100% | kinase still bound, per cent of control (ITK (human)): 100% | kinase still bound, per cent of control [2]: 6.2% | kinase still bound, per cent of control (RIOK3 (human)): 72% | kinase still bound, per cent of control (HIPK4 (human)): 4% | kinase still bound, per cent of control (KIT (human)): 3.5% | kinase still bound, per cent of control (PRKCD (human)): 100% | kinase still bound, per cent of control (MAPK15 (human)): 100% | Kd (RIOK2 (human)): 120 nM | kinase still bound, per cent of control (RIOK2 (human)): 10% | kinase still bound, per cent of control (ABL2 (human)): 97% | kinase still bound, per cent of control [3]: 90% | kinase still bound, per cent of control (PHKG1 (human)): 87% | kinase still bound, per cent of control (STK32C (human)): 95% | kinase still bound, per cent of control (NEK11 (human)): 99% | kinase still bound, per cent of control (FGFR4 (human)): 100% | kinase still bound, per cent of control [4]: 100%
